Reference: patent US20240150839A1, “METHODS FOR PREDICTING RESPONSIVENESS OF PROSTATE CANCER PATIENTS TO PARP INHIBITORS” (Memorial Sloan Kettering Cancer Center, priority 2019, published 2024)

Experiments:
Format in all cases: cell-based, human
MSK-PCa1 organoid = assay: MTT growth of mCRPC organoids with PARPi; settings: compared to benign organoid; 3 days (FIG. 6E)
Description: (§1) Near-diploid benign prostate organoid is used as a control. […] GAPDH served as the loading control. […] The graphs show cell growth measured by MTT assay (±SD); P-trends determined by 2-way ANOVA.
(§2) Cell Culture. Human prostate cancer cells LNCaP, 22RV1, DU145, PC3, and VCaP were obtained from ATCC (Manassas, VA). LNCaP-C42 cells were obtained from VitroMed (Burlington, NC). The LNCaP-Abl cell line, E006AA-T cells, PC3M LAPC4 cell line were obtained. These cells were maintained in 10% FBS (LNCaP, LNCaP-C42, LAPC4, VCaP, 22RV1, DU145, PC3, PC3M, and E006AA) or 10% charcoal-stripped serum (LNCaP-Abl) supplemented with 2 mM of L-glutamine and 1×antibiotic/antimycotic (Gemini Bio-Products, Sacramento, CA) at 37° C. in 5% CO2. Human prostate epithelial cell RWPE1 was obtained from ATCC and cultured in keratinocyte serum-free medium (Thermo Fisher Scientific, Waltham, MA) at 37° C. in 5% CO2. Cells were authenticated by human short tandem repeat profiling at the MSK Integrated Genomics Operation Core. Patient-derived human prostate cancer organoids were cultured as described. Gao et al., Cell 159:176-87 (2014).
(§3) Cell Proliferation Assay by MTT, BrdU and Crystal Violet. For MTT assay, cells were plated at 2.5×10^3 per well in 96-well plates in complete media (10% FBS) or media supplemented with 10% charcoal-stripped serum. Cells were either treated with DMSO or with indicated inhibitors. After indicated times, cells were incubated in 0.5 mg/mL MTT (Invitrogen) for 1 hour at 37° C. MTT crystals were dissolved in isopropanol and absorbance was measured in a BioTek plate reader at […] and represented graphically.

MSK-PCa3 organoid = assay: MTT growth of mCRPC organoids with PARPi; settings: compared to benign organoid; 3 days (FIG. 6E)
Description: as §1, §2, §3

LNCaP-BRCA2-RB1 cells = assay: MTT cell growth with PARP inhibitors; settings: LNCaP-BRCA2-RB1 vs BRCA2-null LNCaP; olaparib 3 μM, talazoparib 0.005 μM (FIG. 2E)
Experimental: (§4) Scr-CRISPR and BRCA2-CRISPR2 cells were also transfected with non-targeting shRNA (scr-Sh) for control of shRNA. RHoGDI served as the loading control. […] Equivalent volume of DMSO was used as placebo treatment. Cell growth was measured by MTT assay; SD, p-values were determined by Student's t-test. […] FIG. 2C (2nd and 3rd rows) show the immunofluorescence (400× magnification) of F-actin filament stained with phalloidin in indicated CRISPR/shRNA-infected LNCaP cells. Nuclei were stained with DAPI (blue). […] 5×10^3 indicated cells were plated on the top of Boyden chamber (see Example 1) in serum-free media; 10% serum in the bottom chamber was used as chemo-attractant. After 48 hours, cells in the lower side of the chamber were fixed, stained, and photographed (100× magnification). […] Nuclei were stained with DAPI (blue). […] The graphs show cell growth measured by MTT assay (±SD); P-values determined by Student's t-test. […] RNA sequencing was analyzed by Partek.
(§5) To generate BRCA2-RB1 knockout-knockdown LNCaP cells, parental LNCaP cells were first infected with lentivirus containing BRCA2 gRNA or scr gRNA. Pooled population of the stable cells were established by puromycin selection and analyzed by western blot and qPCR. BRCA2-knockout or scr LNCaP cells were infected with lentivirus containing RB1 shRNA followed by hygromycin selection. BRCA2-knockout or scr (gRNA) LNCaP cells also infected with lentiviral non-targeting shRNA (scr-shRNA) were used as control. Cells within 4-10 passages after stable selection were used for the following experiments.
as §3

[1] = test system: RB1 knockdown LNCaP cells; assay: MTT cell growth with PARP inhibitors; settings: RB1 knockdown vs control LNCaP cells; olaparib 3 μM, talazoparib 0.005 μM (FIG. 2E)
Experimental: as §4, §5, §3

BRCA2-null LNCaP cells = assay: MTT cell growth of BRCA2 CRISPR-edited LNCaP cells with PARP inhibitors or cisplatin; settings: BRCA2 knockout LNCaP vs control gRNA (scr) cells; complete medium, 6 days (FIG. 7C)
Experimental: Cells infected with scrambled (scr) gRNA were used as control. Equal amount of proteins was loaded in WedgeWell 6% gel and western blot was performed. ˜400 kDa BRCA2 band is indicated by arrow. GAPDH served as loading controls for western blot and qPCR. […] Genotypes are detected by PCR amplification followed by being treated with T7 endonuclease. Wt and mutant BRCA2 are indicated by red and green arrows, respectively. […] Equivalent volume of DMSO was used as placebo treatment. Cell growth was measured by MTT assay (see Example 1); SD, P-values determined by Student's t-test. *P<0.05, **P<0.01, ***P<0.001. FIGS. 7D-7E show the growth curve (FIG. 7D) and a bar graph (FIG. 7E) representing the cell growth of LNCaP BRCA2 CRISPR-edited and non-targeting control gRNA (scr) infected cells in complete medium supplemented with enzalutamide (ENZ; indicated concentration) for 7 days or charcoal-stripped medium (CSS) for 5 days, respectively. Equivalent volume of DMSO was used as placebo treatment. Cell growth was measured by crystal violet staining assay (see Example 1) (±SD); P-values determined by Student's t-test. […] Equivalent volume of DMSO was used as placebo treatment. Cell growth was measured by MTT assay (see Example 1) (±SD); P-values determined by Student's t-test. […] Total RNA was isolated, and BRCA2 mRNA was analyzed by qPCR. […] Cell growth was measured by MTT assay; SD, P-values determined by Student's t-test.
To generate BRCA2 knockout RWPE1 cells, BRCA2 gRNA2 was cloned into LentiCRISPRv2-GFP backbone which constitutively expresses Cas9 and GFP. Lentiviral infected cells were selected by FACS sorting for GFP positive cells (twice) and analyzed by western blot. […] Loss of BRCA2 in the pooled populations of LNCaP cells was analyzed by western blot using BRCA2-specific antibodies and this pooled population of cells was used for the following experiments. […]
Cell Proliferation Assay by MTT, BrdU and Crystal Violet. […] MTT crystals were dissolved in isopropanol and absorbance was measured in a BioTek plate reader at […] and represented graphically.

PC3M cells = assay: MTT cell growth with PARPi or cisplatin; settings: talazoparib 5 nM, 6 days, P<0.0001 (FIG. 11D)
Experimental: as §3, with “The ploidy of each cell line is indicated. […] Equivalent volume of DMSO was used as placebo treatment. Cell growth was measured by MTT assay (see Example 1); SD, each point indicates the MTT count of each well of 96-well plate, P-values determined by Student's t-test. **P<0.01, ****P<0.0001. […] Cell Proliferation” for “Cell Proliferation”

22RV1 cells = assay: MTT cell growth with PARPi or cisplatin; settings: 22RV1, BRCA2 T3033Nfs*11, RB1-wt; cisplatin 500 nM, talazoparib 5 nM, 6 days (FIG. 11D)
Experimental: as §3, with “The ploidy of each cell line is indicated. […] Equivalent volume of DMSO was used as placebo treatment. Cell growth was measured by MTT assay (see Example 1); SD, each point indicates the MTT count of each well of 96-well plate, P-values determined by Student's t-test. **P<0.01, ****P<0.0001. […] Cell Proliferation” for “Cell Proliferation”

With `Cn1ncnc1[C@H]1c2n[nH]c(=O)c3cc(F)cc(c23)N[C@@H]1c1ccc(F)cc1` [talazoparib] the “organoid growth (MTT)” value (MSK-PCa1 organoid) was “growth reduction”, the “organoid growth (MTT)” value (MSK-PCa3 organoid) was “growth reduction” and the “cell growth inhibition (MTT)” value (LNCaP-BRCA2-RB1 cells) was “more cell growth inhibition”. The “inhibitory effect on cell growth (MTT)” value [1] was “could not be detected”, the “sensitivity (cell growth, MTT)” value (BRCA2-null LNCaP cells) was “more sensitivity” and the “growth inhibition compared to olaparib (2.5 μM)” value (PC3M cells) was “more growth inhibition”. The “sensitivity (cell growth, MTT)” value (22RV1 cells) was “modest sensitivity”.
